Reference: PubChem BioAssay AID248 (DTP/NCI, 2004)
Several values for one entry are separate records, joined by “and”; a condition that tells them apart may be missing. Equal entries are not always repeated. Toxic doses and inconclusive results are not listed.

Test system: L1210 leukemia ip in BDF1 mice, survival T/C
Test: NCI In Vivo Anticancer Drug Screen. Data for tumor model L1210 Leukemia (intraperitoneal) in B6D2F1 (BDF1) mice
Conditions: endpoint: mean survival time, higher = longer survival
Summary of the method: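 Each compound was tested against a transplantable tumor grown in mice. The endpoint was survival, with treated animals benchmarked against vehicle controls as a simple ratio.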

[1] = dose: 100.0 mg/kg/injection, schedule: Q04DX002 (ip), vehicle: Klucel (hydroxypropylcellulose) (HPC)
[2] = dose: 200.0 mg/kg/injection, schedule: Q04DX002 (ip), vehicle: Klucel (hydroxypropylcellulose) (HPC)
[3] = dose: 400.0 mg/kg/injection, schedule: Q04DX002 (ip), vehicle: Klucel (hydroxypropylcellulose) (HPC)

CC(=O)OC1CC2(CO2)C2CC3OC3(C)C2C2OC(=O)C(C)C12 (stereo not drawn)
T/C (dose: 12.5 mg/kg/injection, schedule: Q04DX002 (ip), vehicle: saline): 95 % of control | T/C (dose: 25.0 mg/kg/injection, schedule: Q04DX002 (ip), vehicle: saline): 92 % of control | T/C (dose: 50.0 mg/kg/injection, schedule: Q04DX002 (ip), vehicle: saline): 110 % of control | T/C (dose: 75.0 mg/kg/injection, schedule: Q04DX002 (ip), vehicle: saline): 97 % of control | T/C (dose: 100.0 mg/kg/injection, schedule: Q04DX002 (ip), vehicle: saline): 95 % of control | T/C (dose: 115.0 mg/kg/injection, schedule: Q04DX002 (ip), vehicle: saline): 104 % of control | T/C (dose: 170.0 mg/kg/injection, schedule: Q04DX002 (ip), vehicle: saline): 104 % of control | T/C (dose: 200.0 mg/kg/injection, schedule: Q04DX002 (ip), vehicle: saline): 110 % of control | T/C (dose: 400.0 mg/kg/injection, schedule: Q04DX002 (ip), vehicle: saline): 95 % of control

COc1cc(NC2=C(Cl)C(=O)C(Nc3cc(OC)c(OC)c(OC)c3)=C(Cl)C2=O)cc(OC)c1OC
T/C (dose: 100.0 mg/kg/injection, schedule: Q04DX003 (ip), vehicle: Klucel (hydroxypropylcellulose) (HPC)): 119 % of control | T/C (dose: 200.0 mg/kg/injection, schedule: Q04DX003 (ip), vehicle: Klucel (hydroxypropylcellulose) (HPC)): 95 % of control | T/C (dose: 400.0 mg/kg/injection, schedule: Q04DX003 (ip), vehicle: Klucel (hydroxypropylcellulose) (HPC)): 98 % of control

O=C(Nc1ccc(Cl)cc1)c1ccccc1Cl
T/C [1]: 93 % of control | T/C [2]: 100 % of control | T/C [3]: 100 % of control

Nc1ccc(NS(=O)(=O)CS(=O)(=O)Nc2ccc(N)cc2)cc1
T/C (dose: 10.0 mg/kg/injection, schedule: Q01DX001 (ip), vehicle: saline): 96 % of control | T/C (dose: 20.0 mg/kg/injection, schedule: Q01DX001 (ip), vehicle: saline): 101 % of control | T/C (dose: 40.0 mg/kg/injection, schedule: Q01DX001 (ip), vehicle: saline): 101 % of control

CCS(=O)c1c(Cl)c(Cl)c(Cl)c(Cl)c1Cl (stereo not drawn)
T/C (dose: 100.0 mg/kg/injection, schedule: Q01DX009 (ip), vehicle: Klucel (hydroxypropylcellulose) (HPC)): 102 % of control | T/C (dose: 200.0 mg/kg/injection, schedule: Q01DX009 (ip), vehicle: Klucel (hydroxypropylcellulose) (HPC)): 108 % of control | T/C (dose: 400.0 mg/kg/injection, schedule: Q01DX009 (ip), vehicle: Klucel (hydroxypropylcellulose) (HPC)): 95 % of control

COc1ccc(F)cc1CCl
T/C [1]: 98 % of control | T/C [2]: 98 % of control | T/C [3]: 86 % of control

O=C1CSC(c2ccccc2)N1c1ccccc1 (stereo not drawn)
T/C (dose: 50.0 mg/kg/injection, schedule: Q01DX001 (ip), vehicle: saline): 106 % of control | T/C (dose: 100.0 mg/kg/injection, schedule: Q01DX001 (ip), vehicle: saline): 118 % of control | T/C (dose: 200.0 mg/kg/injection, schedule: Q01DX001 (ip), vehicle: saline): 108 % of control | T/C (dose: 400.0 mg/kg/injection, schedule: Q01DX001 (ip), vehicle: saline): 100 % of control

O=C(O)/C=C(\F)C(=O)O
T/C (dose: 50.0 mg/kg/injection, schedule: Q01DX005 (ip), vehicle: water): 109 % of control and 91 % of control | T/C (dose: 100.0 mg/kg/injection, schedule: Q01DX005 (ip), vehicle: water): 96 % of control and 98 % of control | T/C (dose: 200.0 mg/kg/injection, schedule: Q01DX005 (ip), vehicle: water): 107 % of control and 105 % of control

C=C1CCC2(C(C)C)CC12 (stereo not drawn)
T/C (dose: 100.0 mg/kg/injection, schedule: Q01DX009 (ip), vehicle: saline): 103 % of control | T/C (dose: 100.0 mg/kg/injection, schedule: Q04DX003 (ip), vehicle: saline): 96 % of control | T/C (dose: 200.0 mg/kg/injection, schedule: Q01DX009 (ip), vehicle: saline): 93 % of control | T/C (dose: 200.0 mg/kg/injection, schedule: Q04DX003 (ip), vehicle: saline): 110 % of control | T/C (dose: 400.0 mg/kg/injection, schedule: Q01DX009 (ip), vehicle: saline): 94 % of control | T/C (dose: 400.0 mg/kg/injection, schedule: Q04DX003 (ip), vehicle: saline): 100 % of control

O=C(NNC(=O)Nc1ccc(C2=NCCN2)cc1)Nc1ccc(C2=NCCN2)cc1
T/C (dose: 8.0 mg/kg/injection, schedule: Q01DX Z (ip), vehicle: carboxymethylcellulose (CMC)): 95 % of control | T/C (dose: 16.0 mg/kg/injection, schedule: Q01DX Z (ip), vehicle: carboxymethylcellulose (CMC)): 98 % of control | T/C (dose: 32.0 mg/kg/injection, schedule: Q01DX Z (ip), vehicle: carboxymethylcellulose (CMC)): 108 % of control | T/C (dose: 64.0 mg/kg/injection, schedule: Q01DX Z (ip), vehicle: carboxymethylcellulose (CMC)): 165 % of control

O=C(c1ccccc1)c1nc2ccccc2[nH]1
T/C [1]: 108 % of control | T/C [2]: 101 % of control | T/C [3]: 104 % of control

C/C=C/CCCCCCCC
T/C (dose: 100.0 mg/kg/injection, schedule: Q01DX001 (ip), vehicle: saline with Tween-80): 93 % of control | T/C (dose: 200.0 mg/kg/injection, schedule: Q01DX001 (ip), vehicle: saline with Tween-80): 95 % of control | T/C (dose: 400.0 mg/kg/injection, schedule: Q01DX001 (ip), vehicle: saline with Tween-80): 96 % of control

CN1C(=O)N(C)C(=O)C(O)(C2(O)C(=O)N(C)C(=O)N(C)C2=O)C1=O
T/C (dose: 9.38 mg/kg/injection, schedule: Q01DX001 (ip), vehicle: other): 94 % of control | T/C (dose: 18.75 mg/kg/injection, schedule: Q01DX001 (ip), vehicle: other): 94 % of control | T/C (dose: 37.5 mg/kg/injection, schedule: Q01DX001 (ip), vehicle: other): 101 % of control

CCCCCCCCCCCCNC(=O)c1ccccc1O
T/C (dose: 50.0 mg/kg/injection, schedule: Q01DX009 (ip), vehicle: other): 96 % of control | T/C (dose: 100.0 mg/kg/injection, schedule: Q01DX009 (ip), vehicle: other): 91 % of control | T/C (dose: 400.0 mg/kg/injection, schedule: Q01DX009 (ip), vehicle: other): 101 % of control

CC[P+](CC=C(C)C)(c1ccccc1)c1ccccc1
T/C (dose: 0.78 mg/kg/injection, schedule: Q04DX003 (ip), vehicle: Klucel (hydroxypropylcellulose) (HPC)): 96 % of control | T/C (dose: 1.56 mg/kg/injection, schedule: Q04DX003 (ip), vehicle: Klucel (hydroxypropylcellulose) (HPC)): 94 % of control | T/C (dose: 3.12 mg/kg/injection, schedule: Q04DX003 (ip), vehicle: Klucel (hydroxypropylcellulose) (HPC)): 113 % of control and 88 % of control

COC1=[C]([Hg][Br])C(OC)OC1OC (stereo not drawn)
T/C (dose: 5.0 mg/kg/injection, schedule: Q01DX009 (ip), vehicle: saline with Tween-80): 89 % of control | T/C (dose: 10.0 mg/kg/injection, schedule: Q01DX009 (ip), vehicle: saline with Tween-80): 95 % of control

Cc1nn(O)ccc1=N
T/C (dose: 56.25 mg/kg/injection, schedule: Q04DX002 (ip), vehicle: saline): 104 % of control | T/C (dose: 112.5 mg/kg/injection, schedule: Q04DX002 (ip), vehicle: saline): 96 % of control | T/C (dose: 225.0 mg/kg/injection, schedule: Q04DX002 (ip), vehicle: saline): 101 % of control

COC(=O)C1C(C)(C(=O)OC)N=NC1(c1ccccc1)c1ccccc1 (stereo not drawn)
T/C (dose: 100.0 mg/kg/injection, schedule: Q01DX001 (ip), vehicle: steriod suspending solution): 101 % of control | T/C (dose: 200.0 mg/kg/injection, schedule: Q01DX001 (ip), vehicle: steriod suspending solution): 104 % of control | T/C (dose: 400.0 mg/kg/injection, schedule: Q01DX001 (ip), vehicle: steriod suspending solution): 98 % of control

CCC1=C(CC2NCCc3cc(OC)c(OC)cc32)CC2c3ccccc3CCN2C1 (stereo not drawn)
T/C (dose: 4.0 mg/kg/injection, schedule: Q04DX003 (ip), vehicle: water): 105 % of control and 106 % of control | T/C (dose: 8.0 mg/kg/injection, schedule: Q04DX003 (ip), vehicle: water): 104 % of control and 108 % of control | T/C (dose: 16.0 mg/kg/injection, schedule: Q04DX003 (ip), vehicle: water): 112 % of control and 100 % of control | T/C (dose: 32.0 mg/kg/injection, schedule: Q04DX003 (ip), vehicle: water): 105 % of control and 98 % of control | T/C (dose: 64.0 mg/kg/injection, schedule: Q04DX003 (ip), vehicle: water): 100 % of control | T/C (dose: 75.0 mg/kg/injection, schedule: Q01DX001 (ip), vehicle: saline): 100 % of control and 97 % of control | T/C (dose: 150.0 mg/kg/injection, schedule: Q01DX001 (ip), vehicle: saline): 101 % of control and 103 % of control

CC(C)(C)OC[CH2][Hg][I]
T/C (dose: 12.5 mg/kg/injection, schedule: Q04DX002 (ip), vehicle: Klucel (hydroxypropylcellulose) (HPC)): 96 % of control | T/C (dose: 25.0 mg/kg/injection, schedule: Q04DX002 (ip), vehicle: Klucel (hydroxypropylcellulose) (HPC)): 104 % of control
